# Measurements taken from patent US11254686B1 (Corvus Pharmaceuticals, Inc., priority 2017, dated 2022).
# What was measured:
# Assay type in all cases: biochemical
# [1] = target: adenosine A2B receptor (Homo sapiens (Human), UniProt P29275); test: Adenosine receptor activity assay (Table 1), A2B activity; details: for Ratio: A2A activity to the A2B activity, A2A/A2B; for IC50: read-out: Ave A2B cAMP IC50
# [2] = target: adenosine A2A receptor (Homo sapiens (Human), UniProt P29274); test: Adenosine receptor activity assay (Table 1), A2A activity; details: read-out: Ave A2A cAMP IC50
# [3] = target: adenosine A3 receptor (Homo sapiens (Human), UniProt P0DMS8); test: Adenosine receptor activity assay (Table 1), A3 cAMP
# Procedure: (§1) Table 1. Compounds (e.g., Adenosine Receptor modulators) and activity assay results. The legend is as follows: A=<10 nM; B=10-50 nM; C=50-100 nM; D=100-500; and E=>500 nM. The ratio corresponds to the A2A activity to the A2B activity; or A2A/A2B.
# [4] = target: adenosine A1 receptor (Homo sapiens (Human), UniProt P30542); test: Adenosine receptor activity assay (Table 1), A1 cAMP
# Procedure: as §1
# adenosine A1 receptor, sequence (P30542 whole entry): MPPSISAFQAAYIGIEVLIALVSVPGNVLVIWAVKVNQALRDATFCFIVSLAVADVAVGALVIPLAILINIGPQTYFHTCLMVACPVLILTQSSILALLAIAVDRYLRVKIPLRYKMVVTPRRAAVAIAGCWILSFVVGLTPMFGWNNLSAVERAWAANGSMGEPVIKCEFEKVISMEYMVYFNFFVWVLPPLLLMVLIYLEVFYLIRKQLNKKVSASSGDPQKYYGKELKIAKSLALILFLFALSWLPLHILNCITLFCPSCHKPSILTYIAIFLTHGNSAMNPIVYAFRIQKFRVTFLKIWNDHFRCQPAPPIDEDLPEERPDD
# adenosine A2B receptor, sequence (P29275 whole entry): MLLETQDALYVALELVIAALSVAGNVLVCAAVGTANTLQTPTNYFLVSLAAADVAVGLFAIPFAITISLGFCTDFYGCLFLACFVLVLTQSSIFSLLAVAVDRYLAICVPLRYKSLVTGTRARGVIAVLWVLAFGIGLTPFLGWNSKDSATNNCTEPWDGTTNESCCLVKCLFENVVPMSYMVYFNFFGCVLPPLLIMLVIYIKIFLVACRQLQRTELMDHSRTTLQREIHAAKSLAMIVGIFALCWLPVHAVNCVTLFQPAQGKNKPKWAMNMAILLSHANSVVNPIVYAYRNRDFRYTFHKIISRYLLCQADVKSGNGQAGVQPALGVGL
# adenosine A2A receptor, sequence (P29274 whole entry): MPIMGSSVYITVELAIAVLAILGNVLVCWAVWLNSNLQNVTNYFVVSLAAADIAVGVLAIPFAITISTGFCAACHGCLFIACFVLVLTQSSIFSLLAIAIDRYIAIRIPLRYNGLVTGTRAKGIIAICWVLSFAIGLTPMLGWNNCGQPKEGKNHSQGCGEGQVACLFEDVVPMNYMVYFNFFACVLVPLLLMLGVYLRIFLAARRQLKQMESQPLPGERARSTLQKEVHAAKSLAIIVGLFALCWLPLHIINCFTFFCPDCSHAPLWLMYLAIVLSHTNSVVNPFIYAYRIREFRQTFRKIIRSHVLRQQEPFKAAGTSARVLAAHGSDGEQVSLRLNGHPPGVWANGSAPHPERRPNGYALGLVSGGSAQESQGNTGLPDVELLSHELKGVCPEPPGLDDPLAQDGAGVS
# adenosine A3 receptor, sequence (P0DMS8 whole entry): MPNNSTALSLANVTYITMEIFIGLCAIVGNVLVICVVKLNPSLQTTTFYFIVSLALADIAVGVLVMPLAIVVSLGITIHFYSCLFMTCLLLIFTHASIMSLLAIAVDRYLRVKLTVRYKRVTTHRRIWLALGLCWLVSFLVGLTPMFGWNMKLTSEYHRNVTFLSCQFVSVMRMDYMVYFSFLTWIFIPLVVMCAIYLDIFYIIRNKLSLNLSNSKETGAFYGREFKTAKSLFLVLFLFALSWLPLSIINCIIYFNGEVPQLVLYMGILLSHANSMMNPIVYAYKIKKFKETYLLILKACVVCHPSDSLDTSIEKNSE
Ratio [1],IC50 [1],IC50 [2],IC50 [3],IC50 [4],SMILES
26.03,< 10 nM,100 to 500 nM,> 500 nM,> 500 nM,"CNC(=O)NCC1CN(C(=O)c2nc(N[C@@H](C)c3cncc(F)c3)nc3ccsc23)C1 [Example Z576, (S)-1-((1-(2-((1-(5-Fluoropyridin-3-yl)ethyl)amino)thieno[3,2-d]pyrimidine-4-carbonyl)azetidin-3-yl)methyl)-3-methylurea]"
6.37,10 to 50 nM,50 to 100 nM,> 500 nM,> 500 nM,"C[C@H](Nc1nc(C(=O)N2CC(CNC(=O)N(C)C)C2)c2sccc2n1)c1cncc(F)c1 [Example Z577, (S)-3-((1-(2-((1-(5-Fluoropyridin-3-yl)ethyl)amino)thieno[3,2-d]pyrimidine-4-carbonyl)azetidin-3-yl)methyl)-1,1-dimethylurea]"
4.95,10 to 50 nM,50 to 100 nM,> 500 nM,> 500 nM,"CC(C)C(=O)NCC1CN(C(=O)c2nc(N[C@@H](C)c3cncc(F)c3)nc3ccsc23)C1 [Example Z578, (S)—N-((1-(2-((1-(5-Fluoropyridin-3-yl)ethyl)amino)thieno[3,2-d]pyrimidine-4-carbonyl)azetidin-3-yl)methyl)isobutyramide]"
1.19,10 to 50 nM,10 to 50 nM,100 to 500 nM,> 500 nM,"Cc1cc2nc(N[C@@H](C)c3cncc(F)c3)nc(C(=O)N3CC(CC(=O)OC(C)(C)C)C3)c2s1 [Example Z580, tert-Butyl (S)-2-(1-(2-((1-(5-Fluoropyridin-3-yl)ethyl)amino)-6-methylthieno[3,2-d]pyrimidine-4-carbonyl)azetidin-3-yl)acetate]"
1.68,10 to 50 nM,10 to 50 nM,> 500 nM,> 500 nM,"C[C@H](Nc1nc(C(=O)N2CC(CNC(=O)OCC(C)(C)C)C2)c2sccc2n1)c1cncc(F)c1 [Example Z581, Neopentyl (S)-((1-(2-((1-(5-fluoropyridin-3-yl)ethyl)amino)thieno[3,2-d]pyrimidine-4-carbonyl)azetidin-3-yl)methyl)carbamate]"
0.37,10 to 50 nM,10 to 50 nM,> 500 nM,> 500 nM,"C[C@H](Nc1nc(C(=O)N2CC(NC(=O)OC(C)(C)C)C2)c2sccc2n1)c1cncc(F)c1 [Example Z583, tert-Butyl (S)-(1-(2-((1-(5-fluoropyridin-3-yl)ethyl)amino)thieno[3,2-d]pyrimidine-4-carbonyl)azetidin-3-yl)carbamate]"
21.44,10 to 50 nM,100 to 500 nM,> 500 nM,> 500 nM,"CNC(=O)N1CCN(C(=O)c2nc(N[C@@H](C)c3cncc(F)c3)nc3ccsc23)C1 [Example Z585, (S)-3-(2-((1-(5-Fluoropyridin-3-yl)ethyl)amino)thieno[3,2-d]pyrimidine-4-carbonyl)-N-methylimidazolidine-1-carboxamide]"
2.27,10 to 50 nM,50 to 100 nM,> 500 nM,> 500 nM,"Cc1cc2nc(N[C@@H](C)c3cncc(F)c3)nc(C(=O)N3CC(CNC(=O)CC(C)(C)C)C3)c2s1 [Example Z586, (S)—N-((1-(2-((1-(5-Fluoropyridin-3-yl)ethyl)amino)-6-methylthieno[3,2-d]pyrimidine-4-carbonyl)azetidin-3-yl)methyl)-3,3-dimethylbutanamide]"
0.26,10 to 50 nM,< 10 nM,100 to 500 nM,> 500 nM,"Cc1cc2nc(N[C@@H](C)c3cncc(F)c3)nc(C(=O)N3CC(NC(=O)C(C)C)C3)c2s1 [Example Z588, (S)—N-(1-(2-((1-(5-Fluoropyridin-3-yl)ethyl)amino)-6-methylthieno[3,2-d]pyrimidine-4-carbonyl)azetidin-3-yl)isobutyramide]"
0.14,10 to 50 nM,< 10 nM,10 to 50 nM,> 500 nM,"Cc1cc2nc(N[C@@H](C)c3cncc(F)c3)nc(C(=O)N3CC(NC(=O)OCC(C)(C)C)C3)c2s1 [Example Z591, Neopentyl (S)-(1-(2-((1-(5-fluoropyridin-3-yl)ethyl)amino)-6-methylthieno[3,2-d]pyrimidine-4-carbonyl)azetidin-3-yl)carbamate]"
3.25,10 to 50 nM,50 to 100 nM,> 500 nM,> 500 nM,"Cc1cc2nc(N[C@@H](C)c3cncc(F)c3)nc(C(=O)N3CCN(C(=O)NC(C)C)C3)c2s1 [Example Z593, (S)-3-(2-((1-(5-Fluoropyridin-3-yl)ethyl)amino)-6-methylthieno[3,2-d]pyrimidine-4-carbonyl)-N-isopropylimidazolidine-1-carboxamide]"
0.15,10 to 50 nM,< 10 nM,50 to 100 nM,> 500 nM,"C[C@H](Nc1nc(C(=O)N2CC(NC(=O)C(C)(C)C)C2)c2sccc2n1)c1cncc(F)c1 [Example Z594, (S)—N-(1-(2-((1-(5-Fluoropyridin-3-yl)ethyl)amino)thieno[3,2-d]pyrimidine-4-carbonyl)azetidin-3-yl)pivalamide]"
9.45,< 10 nM,10 to 50 nM,< 10 nM,< 10 nM,"Cc1cc2nc(N[C@@H](C)c3cncc(F)c3)nc(C(=O)N3CC[C@H]3C)c2s1 [Example Z595, (2-(((S)-1-(5-Fluoropyridin-3-yl)ethyl)amino)-6-methylthieno[3,2-d]pyrimidin-4-yl)((R)-2-methylazetidin-1-yl)methanone]"
10.34,< 10 nM,10 to 50 nM,< 10 nM,< 10 nM,Cc1cc2nc(N[C@@H](C)c3cncc(F)c3)nc(C(=O)N3CC[C@@H]3C)c2s1 [Example Z596]
99.33,10 to 50 nM,> 500 nM,< 10 nM,< 10 nM,"Cc1cc2nc(N[C@@H](C)c3cncc(F)c3)nc(C(=O)N3CC[C@@H](CN)C3)c2s1 [Example Z597, ((S)-3-(Aminomethyl)pyrrolidin-1-yl)(2-(((S)-1-(5-fluoropyridin-3-yl)ethyl)amino)-6-methylthieno[3,2-d]pyrimidin-4-yl)methanone]"

SMILES,Ratio [1],IC50 [1],IC50 [2],IC50 [3],IC50 [4]
"C[C@H](Nc1nc(C(=O)N2CC(C(=O)NOC(C)(C)C)C2)c2sccc2n1)c1cncc(F)c1 [Example Z579, (S)—N-(tert-Butoxy)-1-(2-((1-(5-fluoropyridin-3-yl)ethyl)amino)thieno[3,2-d]pyrimidine-4-carbonyl)azetidine-3-carboxamide]",1.29,50 to 100 nM,50 to 100 nM,> 500 nM,> 500 nM
"Cc1cc2nc(N[C@@H](C)c3cncc(F)c3)nc(C(=O)N3CC(C(=O)NOC(C)(C)C)C3)c2s1 [Example Z592, (S)—N-(tert-Butoxy)-1-(2-((1-(5-fluoropyridin-3-yl)ethyl)amino)-6-methylthieno[3,2-d]pyrimidine-4-carbonyl)azetidine-3-carboxamide]",4.67,10 to 50 nM,50 to 100 nM,> 500 nM,> 500 nM
